ChEMBL document CHEMBL3407459, “Synthesis and antimicrobial activity of novel structural hybrids of benzofuroxan and benzothiazole derivatives” (2015)

How the values were obtained:
Escherichia coli [1] = experiment: Antibacterial activity against Escherichia coli MG1655 harboring pRecA-lux assessed as maximum induction factor at 10^-11 M after 120 mins by luminometric analysis; format: functional, K-12 substr. MG1655
Escherichia coli [2] = experiment: Antibacterial activity against Escherichia coli MG1655 harboring pIbpA-lux assessed as maximum induction factor at 10^-11 M after 120 mins by luminometric analysis; format: functional, K-12 substr. MG1655
Escherichia coli [3] = experiment: Antibacterial activity against Escherichia coli MG1655 harboring pSoxS-lux assessed as maximum induction factor at 10^-12 M after 120 mins by luminometric analysis; format: functional, K-12 substr. MG1655
Escherichia coli [4] = experiment: Antibacterial activity against Escherichia coli MG1655 harboring pKatG-lux assessed as maximum induction factor at 10^-12 M after 120 mins by luminometric analysis; format: functional, K-12 substr. MG1655
Escherichia coli [5] = experiment: Antibacterial activity against Escherichia coli MG1655 harboring pRecA-lux assessed as maximum induction factor at 10^-12 M after 120 mins by luminometric analysis; format: functional, K-12 substr. MG1655
Escherichia coli [6] = experiment: Antibacterial activity against Escherichia coli MG1655 harboring pIbpA-lux assessed as maximum induction factor at 10^-12 M after 120 mins by luminometric analysis; format: functional, K-12 substr. MG1655
Escherichia coli [7] = experiment: Antibacterial activity against Escherichia coli MG1655 harboring pSoxS-lux assessed as maximum induction factor at 10^-13 M after 120 mins by luminometric analysis; format: functional, K-12 substr. MG1655
Escherichia coli [8] = experiment: Antibacterial activity against Escherichia coli MG1655 harboring pKatG-lux assessed as maximum induction factor at 10^-13 M after 120 mins by luminometric analysis; format: functional, K-12 substr. MG1655
Escherichia coli [9] = experiment: Antibacterial activity against Escherichia coli MG1655 harboring pGrpE-lux assessed as maximum induction factor at 10^-13 M after 120 mins by luminometric analysis; format: functional, K-12 substr. MG1655
[10] = Activation of quorum sensing system luxR in Escherichia coli MG1655 harboring pVFR1-lux assessed as maximum induction factor at 10^-13 M after 120 mins by luminometric analysis; conditions: Escherichia coli str. K-12 substr. MG1655
Escherichia coli [11] = experiment: Antibacterial activity against Escherichia coli MG1655 harboring pColD-lux assessed as maximum induction factor at 10^-14 M after 120 mins by luminometric analysis; format: functional, K-12 substr. MG1655
Escherichia coli [12] = experiment: Antibacterial activity against Escherichia coli MG1655 harboring pGrpE-lux assessed as maximum induction factor at 10^-14 M after 120 mins by luminometric analysis; format: functional, K-12 substr. MG1655
Escherichia coli [13] = experiment: Antibacterial activity against Escherichia coli MG1655 harboring pIbpA-lux assessed as maximum induction factor at 10^-14 M after 120 mins by luminometric analysis; format: functional, K-12 substr. MG1655
Vibrio sp. [14] = experiment: Antibacterial activity against Vibrio aqamarinus VKPM B-11245 assessed as toxicity index at 10^-3 M measured for 2 hrs by luminometric analysis; format: functional
Vibrio sp. [15] = experiment: Antibacterial activity against Vibrio aqamarinus VKPM B-11245 assessed as toxicity index at 10^-4 M measured for 2 hrs by luminometric analysis; format: functional
Vibrio sp. [16] = experiment: Antibacterial activity against Vibrio aqamarinus VKPM B-11245 assessed as toxicity index at 10^-8 M measured for 2 hrs by luminometric analysis; format: functional
Vibrio sp. [17] = experiment: Antibacterial activity against Vibrio aqamarinus VKPM B-11245 assessed as toxicity index at 10^-11 M measured for 2 hrs by luminometric analysis; format: functional
Escherichia coli [18] = experiment: Antibacterial activity against Escherichia coli MG1655 harboring pXen7 assessed as toxicity index at 10^-5 M measured for 2 hrs by luminometric analysis; format: functional, K-12 substr. MG1655
Escherichia coli [19] = experiment: Antibacterial activity against Escherichia coli MG1655 harboring pXen7 assessed as toxicity index at 10^-7 M measured for 2 hrs by luminometric analysis; format: functional, K-12 substr. MG1655
Escherichia coli [20] = experiment: Antibacterial activity against Escherichia coli MG1655 harboring pXen7 assessed as toxicity index at 10^-9 M measured for 2 hrs by luminometric analysis; format: functional, K-12 substr. MG1655
Escherichia coli [21] = experiment: Antibacterial activity against Escherichia coli MG1655 harboring pXen7 assessed as toxicity index at 10^-12 M measured for 2 hrs by luminometric analysis; format: functional, K-12 substr. MG1655
Escherichia coli [22] = experiment: Antibacterial activity against Escherichia coli MG1655 harboring pKatG-lux assessed as maximum induction factor at 10^-3 M after 120 mins by luminometric analysis; format: functional, K-12 substr. MG1655
Escherichia coli [23] = experiment: Antibacterial activity against Escherichia coli MG1655 harboring pSoxS-lux assessed as maximum induction factor at 10^-5 M after 120 mins by luminometric analysis; format: functional, K-12 substr. MG1655
Escherichia coli [24] = experiment: Antibacterial activity against Escherichia coli MG1655 harboring pKatG-lux assessed as maximum induction factor at 10^-5 M after 120 mins by luminometric analysis; format: functional, K-12 substr. MG1655
Escherichia coli [25] = experiment: Antibacterial activity against Escherichia coli MG1655 harboring pColD-lux assessed as maximum induction factor at 10^-5 M after 120 mins by luminometric analysis; format: functional, K-12 substr. MG1655
Escherichia coli [26] = experiment: Antibacterial activity against Escherichia coli MG1655 harboring pSoxS-lux assessed as maximum induction factor at 10^-6 M after 120 mins by luminometric analysis; format: functional, K-12 substr. MG1655
Escherichia coli [27] = experiment: Antibacterial activity against Escherichia coli MG1655 harboring pGrpE-lux assessed as maximum induction factor at 10^-6 M after 120 mins by luminometric analysis; format: functional, K-12 substr. MG1655
Escherichia coli [28] = experiment: Antibacterial activity against Escherichia coli MG1655 harboring pIbpA-lux assessed as maximum induction factor at 10^-6 M after 120 mins by luminometric analysis; format: functional, K-12 substr. MG1655
Escherichia coli [29] = experiment: Antibacterial activity against Escherichia coli MG1655 harboring pRecA-lux assessed as maximum induction factor at 10^-7 M after 120 mins by luminometric analysis; format: functional, K-12 substr. MG1655
Escherichia coli [30] = experiment: Antibacterial activity against Escherichia coli MG1655 harboring pSoxS-lux assessed as maximum induction factor at 10^-8 M after 120 mins by luminometric analysis; format: functional, K-12 substr. MG1655
Escherichia coli [31] = experiment: Antibacterial activity against Escherichia coli MG1655 harboring pKatG-lux assessed as maximum induction factor at 10^-8 M after 120 mins by luminometric analysis; format: functional, K-12 substr. MG1655
Escherichia coli [32] = experiment: Antibacterial activity against Escherichia coli MG1655 harboring pRecA-lux assessed as maximum induction factor at 10^-8 M after 120 mins by luminometric analysis; format: functional, K-12 substr. MG1655
Escherichia coli [33] = experiment: Antibacterial activity against Escherichia coli MG1655 harboring pGrpE-lux assessed as maximum induction factor at 10^-8 M after 120 mins by luminometric analysis; format: functional, K-12 substr. MG1655
Escherichia coli [34] = experiment: Antibacterial activity against Escherichia coli MG1655 harboring pSoxS-lux assessed as maximum induction factor at 10^-9 M after 120 mins by luminometric analysis; format: functional, K-12 substr. MG1655
Escherichia coli [35] = experiment: Antibacterial activity against Escherichia coli MG1655 harboring pKatG-lux assessed as maximum induction factor at 10^-9 M after 120 mins by luminometric analysis; format: functional, K-12 substr. MG1655
Escherichia coli [36] = experiment: Antibacterial activity against Escherichia coli MG1655 harboring pRecA-lux assessed as maximum induction factor at 10^-9 M after 120 mins by luminometric analysis; format: functional, K-12 substr. MG1655
Escherichia coli [37] = experiment: Antibacterial activity against Escherichia coli MG1655 harboring pIbpA-lux assessed as maximum induction factor at 10^-9 M after 120 mins by luminometric analysis; format: functional, K-12 substr. MG1655
Escherichia coli [38] = experiment: Antibacterial activity against Escherichia coli MG1655 harboring pKatG-lux assessed as maximum induction factor at 10^-10 M after 120 mins by luminometric analysis; format: functional, K-12 substr. MG1655
Escherichia coli [39] = experiment: Antibacterial activity against Escherichia coli MG1655 harboring pSoxS-lux assessed as maximum induction factor at 10^-11 M after 120 mins by luminometric analysis; format: functional, K-12 substr. MG1655
Escherichia coli [40] = experiment: Antibacterial activity against Escherichia coli MG1655 harboring pKatG-lux assessed as maximum induction factor at 10^-11 M after 120 mins by luminometric analysis; format: functional, K-12 substr. MG1655

O=[N+]([O-])c1cc([N+](=O)[O-])c2no[n+]([O-])c2c1Sc1nc2ccccc2s1
Activity (Escherichia coli [1]): 1.03 | Activity (Escherichia coli [2]): 1.47 | Activity (Escherichia coli [3]): 1.41 | Activity (Escherichia coli [4]): 1.12 | Activity (Escherichia coli [5]): 0.94 | Activity (Escherichia coli [6]): 1.25 | Activity (Escherichia coli [7]): 1.03 | Activity (Escherichia coli [8]): 0.87 | Activity (Escherichia coli [9]): 0.96 | Activity [10]: 1.77 | Activity (Escherichia coli [11]): 1.07 | Activity (Escherichia coli [12]): 1.13 | Activity (Escherichia coli [13]): 1.46 | Activity (Vibrio sp. [14]): 98.83 | Activity (Vibrio sp. [15]): 99.1 | Activity (Vibrio sp. [16]): 5.97 | Activity (Vibrio sp. [17]): 19.14 | Activity (Escherichia coli [18]): 33.59 | Activity (Escherichia coli [19]): 0 | Activity (Escherichia coli [20]): 0 | Activity (Escherichia coli [21]): 10.52 | Activity (Escherichia coli [22]): 0.18 | Activity (Escherichia coli [23]): 0.99 | Activity (Escherichia coli [24]): 0.71 | Activity (Escherichia coli [25]): 0.87 | Activity (Escherichia coli [26]): 1.28 | Activity (Escherichia coli [27]): 1.15 | Activity (Escherichia coli [28]): 1.28 | Activity (Escherichia coli [29]): 1.01 | Activity (Escherichia coli [30]): 1.27 | Activity (Escherichia coli [31]): 0.84 | Activity (Escherichia coli [32]): 0.99 | Activity (Escherichia coli [33]): 1.08 | Activity (Escherichia coli [34]): 1.08 | Activity (Escherichia coli [35]): 0.96 | Activity (Escherichia coli [36]): 1.02 | Activity (Escherichia coli [37]): 1.09 | Activity (Escherichia coli [38]): 1.02 | Activity (Escherichia coli [39]): 0.99 | Activity (Escherichia coli [40]): 1.03
